ChEMBL document CHEMBL1201862, “PubChem BioAssay data set” (2004)
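Cells were grown in 96-well plates and exposed to each compound for 48 hours at five concentrations; endpoints were interpolated linearly between bracketing concentrations, or set to the highest concentration if not reached. GI50 = concentration required for 50% inhibition of growth.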 Active and inactive are the calls of the source. No stated cut-off is given here; in the data, active = GI50 up to about 1.1 µM and inactive = higher.

Columns and labels:
Test in all cases: NCI tumour cell line growth inhibition, 48 h
A549 = tested on: A549
NCI-H226 = tested on: NCI-H226
HCC 2998 = tested on: HCC 2998
SF-268 = tested on: SF-268
UACC-62 = tested on: UACC-62
MDA-MB-435 = tested on: MDA-MB-435
K562 = tested on: K562
NCI-H460 = tested on: NCI-H460
CAKI-1 = tested on: CAKI-1
SR = tested on: SR
CCRF-CEM = tested on: CCRF-CEM
SF-295 = tested on: SF-295
MCF7 = tested on: MCF7
T47D = tested on: T47D
HCT-116 = tested on: HCT-116
Malme-3M = tested on: Malme-3M
SW-620 = tested on: SW-620
786-0 = tested on: 786-0
SK-MEL-2 = tested on: SK-MEL-2
MOLT-4 = tested on: MOLT-4
UACC-257 = tested on: UACC-257
NCI-H23 = tested on: NCI-H23
OVCAR-4 = tested on: OVCAR-4
MDA-N = tested on: MDA-N
OVCAR-3 = tested on: OVCAR-3
IGROV-1 = tested on: IGROV-1
HOP-92 = tested on: HOP-92
SK-MEL-28 = tested on: SK-MEL-28
MDA-MB-231 = tested on: MDA-MB-231
UO-31 = tested on: UO-31
HT-29 = tested on: HT-29
SN12C = tested on: SN12C
PC-3 = tested on: PC-3
Hs-578T = tested on: Hs-578T
NCI/ADR-RES = tested on: NCI/ADR-RES
SK-MEL-5 = tested on: SK-MEL-5
DU-145 = tested on: DU-145
COLO 205 = tested on: COLO 205
SF-539 = tested on: SF-539
U-251 = tested on: U-251
ACHN = tested on: ACHN
NCI-H522 = tested on: NCI-H522
HL-60 = tested on: HL-60
RPMI-8226 = tested on: RPMI-8226
SNB-75 = tested on: SNB-75
SK-OV-3 = tested on: SK-OV-3
M14 = tested on: M14
A498 = tested on: A498
LOX IMVI = tested on: LOX IMVI
KM12 = tested on: KM12
EKVX = tested on: EKVX
HCT-15 = tested on: HCT-15
SNB-19 = tested on: SNB-19
OVCAR-8 = tested on: OVCAR-8
RXF 393 = tested on: RXF 393
BT-549 = tested on: BT-549
TK-10 = tested on: TK-10
OVCAR-5 = tested on: OVCAR-5
HOP-62 = tested on: HOP-62

SMILES: Cc1cc(N2CCCC2)c([N+](=O)[O-])cc1[N+](=O)[O-]
- GI50 (A549): > 100 µM (inactive)
- GI50 (NCI-H226): > 100 µM (inactive)
- GI50 (HCC 2998): > 100 µM (inactive)
- GI50 (SF-268): > 100 µM (inactive)
- GI50 (UACC-62): > 100 µM (inactive)
- GI50 (MDA-MB-435): > 100 µM (inactive)
- GI50 (K562): > 100 µM (inactive)
- GI50 (NCI-H460): > 100 µM (inactive)
- GI50 (CAKI-1): > 100 µM (inactive)
- GI50 (SR): > 100 µM (inactive)
- GI50 (CCRF-CEM): > 100 µM (inactive)
- GI50 (SF-295): > 100 µM (inactive)
- GI50 (MCF7): > 100 µM (inactive)
- GI50 (T47D): > 100 µM (inactive)
- GI50 (HCT-116): > 100 µM (inactive)
- GI50 (Malme-3M): > 100 µM (inactive)
- GI50 (SW-620): > 100 µM (inactive)
- GI50 (786-0): > 100 µM (inactive)
- GI50 (SK-MEL-2): > 100 µM (inactive)
- GI50 (MOLT-4): > 100 µM (inactive)
- GI50 (UACC-257): > 100 µM (inactive)
- GI50 (NCI-H23): > 100 µM (inactive)
- GI50 (OVCAR-4): > 100 µM (inactive)
- GI50 (MDA-N): > 100 µM (inactive)
- GI50 (OVCAR-3): > 100 µM (inactive)
- GI50 (IGROV-1): > 100 µM (inactive)
- GI50 (HOP-92): > 100 µM (inactive)
- GI50 (SK-MEL-28): > 100 µM (inactive)
- GI50 (MDA-MB-231): > 100 µM (inactive)
- GI50 (UO-31): > 100 µM (inactive)
- GI50 (HT-29): > 100 µM (inactive)
- GI50 (SN12C): > 100 µM (inactive)
- GI50 (PC-3): > 100 µM (inactive)
- GI50 (Hs-578T): 90.4 µM (inactive)
- GI50 (NCI/ADR-RES): > 100 µM (inactive)
- GI50 (SK-MEL-5): > 100 µM (inactive)
- GI50 (DU-145): > 100 µM (inactive)
- GI50 (COLO 205): > 100 µM (inactive)
- GI50 (SF-539): > 100 µM (inactive)
- GI50 (U-251): > 100 µM (inactive)
- GI50 (ACHN): > 100 µM (inactive)
- GI50 (NCI-H522): > 100 µM (inactive)
- GI50 (HL-60): > 100 µM (inactive)
- GI50 (RPMI-8226): > 100 µM (inactive)
- GI50 (SNB-75): > 100 µM (inactive)
- GI50 (SK-OV-3): > 100 µM (inactive)
- GI50 (M14): > 100 µM (inactive)
- GI50 (A498): > 100 µM (inactive)
- GI50 (LOX IMVI): > 100 µM (inactive)
- GI50 (KM12): > 100 µM (inactive)
- GI50 (EKVX): > 100 µM (inactive)
- GI50 (HCT-15): > 100 µM
- GI50 (SNB-19): > 100 µM (inactive)
- GI50 (OVCAR-8): > 100 µM (inactive)
- GI50 (RXF 393): 80.9 µM (inactive)
- GI50 (BT-549): > 100 µM (inactive)

SMILES: Cc1cc(=O)nc(S(=O)(=O)NC(=S)Nc2ccc(Cl)cc2)[nH]1
- GI50 (A549): > 100 µM (inactive)
- GI50 (NCI-H226): > 100 µM (inactive)
- GI50 (HCC 2998): > 100 µM (inactive)
- GI50 (SF-268): > 100 µM (inactive)
- GI50 (UACC-62): > 100 µM (inactive)
- GI50 (MDA-MB-435): > 100 µM (inactive)
- GI50 (TK-10): > 100 µM (inactive)
- GI50 (NCI-H460): > 100 µM (inactive)
- GI50 (CAKI-1): 77.8 µM (inactive)
- GI50 (SR): 18.8 µM (inactive)
- GI50 (CCRF-CEM): > 100 µM (inactive)
- GI50 (SF-295): > 100 µM (inactive)
- GI50 (MCF7): > 100 µM (inactive)
- GI50 (T47D): 44.9 µM (inactive)
- GI50 (HCT-116): > 100 µM (inactive)
- GI50 (Malme-3M): > 100 µM (inactive)
- GI50 (SW-620): > 100 µM (inactive)
- GI50 (786-0): > 100 µM (inactive)
- GI50 (SK-MEL-2): > 100 µM (inactive)
- GI50 (MOLT-4): 10.2 µM (inactive)
- GI50 (UACC-257): > 100 µM (inactive)
- GI50 (NCI-H23): > 100 µM (inactive)
- GI50 (OVCAR-4): > 100 µM (inactive)
- GI50 (MDA-N): > 100 µM (inactive)
- GI50 (OVCAR-3): > 100 µM (inactive)
- GI50 (IGROV-1): > 100 µM (inactive)
- GI50 (HOP-92): > 100 µM (inactive)
- GI50 (SK-MEL-28): > 100 µM (inactive)
- GI50 (MDA-MB-231): > 100 µM (inactive)
- GI50 (UO-31): > 100 µM (inactive)
- GI50 (HT-29): > 100 µM (inactive)
- GI50 (SN12C): > 100 µM (inactive)
- GI50 (PC-3): > 100 µM (inactive)
- GI50 (Hs-578T): > 100 µM (inactive)
- GI50 (NCI/ADR-RES): > 100 µM (inactive)
- GI50 (SK-MEL-5): > 100 µM (inactive)
- GI50 (DU-145): > 100 µM (inactive)
- GI50 (COLO 205): > 100 µM (inactive)
- GI50 (SF-539): > 100 µM (inactive)
- GI50 (U-251): > 100 µM (inactive)
- GI50 (OVCAR-5): > 100 µM (inactive)
- GI50 (ACHN): > 100 µM (inactive)
- GI50 (NCI-H522): 27.1 µM (inactive)
- GI50 (HL-60): > 100 µM (inactive)
- GI50 (RPMI-8226): 34.4 µM (inactive)
- GI50 (SNB-75): 64 µM (inactive)
- GI50 (SK-OV-3): > 100 µM (inactive)
- GI50 (M14): > 100 µM (inactive)
- GI50 (A498): > 100 µM (inactive)
- GI50 (HOP-62): > 100 µM (inactive)
- GI50 (KM12): > 100 µM (inactive)
- GI50 (EKVX): 39.5 µM (inactive)
- GI50 (HCT-15): > 100 µM
- GI50 (SNB-19): > 100 µM (inactive)
- GI50 (OVCAR-8): > 100 µM (inactive)
- GI50 (RXF 393): 2.74 µM (inactive)
- GI50 (BT-549): > 100 µM (inactive)
